Laboratory results published in US5342980A, “Fungicidal agents” (American Cyanamid Company, priority 1992, dated 1994).

Assays:
[1] = system: Fusarium oxysporum f. sp. cucumerinum; experiment: In vitro fungicidal evaluation, growth inhibition (FUSOXC); type: cell-based; parameters: scale not given here; conditions: 25 ppm, 3-4 days at 21° C.
Procedure: (§1) Test compounds are dissolved in acetone and dispersed into cell well plates containing a suspension of ground fungal mycelia in a nutrient broth. Assay plates are incubated for 3-4 days at 21° C. Growth inhibition is measured visually and is rated using the following scale:
(§2) Untreated controls, solvent blanks and reference standards are included in each test.
(§3) Assay fungi include the plant pathogens, Pythium ultimum (Pythul); Rhizoctonia solani (Rhizso); Fusarium oxysporum f. sp. cucumerinum (Fusoxc); and Pseudocercosporella herpotrichoides (Psdche).
(§4) When more than one test is run, the data are averaged.

[2] = system: Pseudocercosporella herpotrichoides; experiment: In vitro fungicidal evaluation, growth inhibition (PSDCHE); type: cell-based; parameters: scale not given here; conditions: 25 ppm, 3-4 days at 21° C.
Procedure: as §1, §2, §3, §4

Pythium ultimum = experiment: In vitro fungicidal evaluation, growth inhibition (PYTHUL); type: cell-based; parameters: scale not given here; conditions: 25 ppm, 3-4 days at 21° C.
Procedure: as §1, §2, §3, §4

Rhizoctonia solani = experiment: In vitro fungicidal evaluation, growth inhibition (RHIZSO); type: cell-based; parameters: scale not given here; conditions: 25 ppm, 3-4 days at 21° C.
Procedure: as §1, §2, §3, §4

Venturia inaequalis = experiment: In vivo fungicidal evaluation, Apple Scab (AS); conditions: 200 ppm, plants sprayed before inoculation
Plasmopara viticola = experiment: In vivo fungicidal evaluation, Grape Downy Mildew (GDM); conditions: 200 ppm, plants sprayed before inoculation
Botrytis cinerea = experiment: In vivo fungicidal evaluation, Pepper Botrytis (PB); conditions: 200 ppm, plants sprayed before inoculation
Pyricularia oryzae = type: in vivo; conditions: 200 ppm, plants sprayed before inoculation
Cercospora beticola = experiment: In vivo fungicidal evaluation, Sugar Beet Cercospora (SBC); conditions: plants sprayed before inoculation
Alternaria solani = experiment: In vivo fungicidal evaluation, Tomato Early Blight (TEB); conditions: 200 ppm, plants sprayed before inoculation
[3] = system: Erysiphe graminis f. sp. tritici; experiment: In vivo fungicidal evaluation, Wheat Powdery Mildew (WPM); conditions: 200 ppm, plants sprayed before inoculation

Molecule	growth inhibition rating, FUSOXC [1]	growth inhibition rating, PSDCHE [2]	growth inhibition rating, PYTHUL (Pythium ultimum)	growth inhibition rating, RHIZSO (Rhizoctonia solani)	disease control rating, AS (Venturia inaequalis)	disease control rating, GDM (Plasmopara viticola)	disease control rating, PB (Botrytis cinerea)	disease control rating, RB (Pyricularia oryzae)	disease control rating, SBC (Cercospora beticola; 200 ppm)	disease control rating, SBC (Cercospora beticola; 400 ppm)	disease control rating, TEB (Alternaria solani)	disease control rating, WPM [3]
CC(C)(C)C(=O)C(=S)N(Cc1ccccc1)OC(=O)Nc1ccccc1 [Carbanilate ester of N-benzyl-3,3-dimethyl-2-oxo-1-thiobutyrohydroxamate]	0.5	0.0	6.0	2.5								
CC(C)(C)C(=O)C(=S)N(O)C1CCCC1.CC(C)(C)C(=O)C(=S)N(O)C1CCCC1.[Zn+2] [N-cyclopentyl-3,3-dimethyl-2-oxo-1-thiobutyrohydroxamic acid zinc(+2) chelate]	3.7	3.0	7.0	3.3	0.0	0.0	0.0	0.0	2.3	1.0	0.0	0.0
C=CC(=O)ON(C)C(=S)C(=O)C(C)(C)C [acrylate ester of N,3,3-trimethyl-2-oxo-1-thiobutyrohydroxamate]	0.0	7.0	9.0	0.0	0.0	0.0	2.0	0.0	0.0		0.0	0.0
CN(OC(=O)c1ccc(Cl)cc1)C(=S)C(=O)C(C)(C)C [p-Chlorobenzoate ester of N,3,3-trimethyl-2-oxo-1-thiobutyrohydroxamate]	0.0	0.0	0.0	0.0	8.0	0.0	8.0	6.0	4.0		6.0	3.0
CC(=O)ON(C)C(=S)C(=O)C(C)(C)C [acetate ester of N,3,3-trimethyl-2oxo-1-thiobutyrohydroxamate]	0.0	0.0	9.0	0.0	0.0	0.0	0.0	0.0	0.0		5.0	0.0
CC(C)(C)C(=O)C(=S)N([O-])Cc1ccccc1.CC(C)(C)C(=O)C(=S)N([O-])Cc1ccccc1.[Zn+2] [N-benzyl-3,3-dimethyl-2-oxo-1-thiobutyrohydroxamic acid zinc(+2) chelate]	0.0	0.0	4.0	0.0	0.0	0.0	0.0	0.0	6.0		0.0	0.0
CC(C)(C)C(=O)C(=S)N(O)Cc1ccccc1 [N-benzyl-3,3-dimethyl-2-oxo-1-thiobutyrohydroxamic acid]	3.5	7.0	7.0	4.5								
CC(C)(C)C(=O)C(=S)N([O-])C1CCCC1.CC(C)(C)C(=O)C(=S)N([O-])C1CCCC1.[Cu+2] [N-cyclopentyl-3,3-dimethyl-2-oxo-1-thiobutyrohydroxamic acid copper(+2) chelate]	0.0	0.0	0.0	0.0	0.0	0.0	0.0	0.0	0.5	2.0	0.0	0.0
CC(C)(C)C(=O)C(=S)N([O-])C1CCCC1.CC(C)(C)C(=O)C(=S)N([O-])C1CCCC1.CC(C)(C)C(=O)C(=S)N([O-])C1CCCC1.[Fe+3] [N-cyclopentyl-3,3-dimethyl-2-oxo-1-thiobutyrohydroxamicacid iron(+3) chelate]	0.0	0.0	0.0	0.0	0.0	0.0	0.0	0.0	0.8	1.8	0.0	0.0
CC(C)(C)C(=O)C(=S)N([O-])Cc1ccccc1.CC(C)(C)C(=O)C(=S)N([O-])Cc1ccccc1.[Cu+2] [N-benzyl-3,3-dimethyl-2-oxo-1-thiobutyrohydroxamic acid copper(+2) chelate]	0.0	0.0	1.5	1.5								
CN(O)C(=S)C(=O)C12CC3CC(CC(C3)C1)C2 [N-methyl-α-thio-1-adamantaneglyoxylohydroxamic acid]	1.7	3.3	7.0	1.0	0.0	0.0	0.0	0.0	1.8	3.0	0.0	0.0
CC(C)N([O-])C(=S)C(=O)C(C)(C)C.CC(C)N([O-])C(=S)C(=O)C(C)(C)C.[Zn+2] [N-isopropyl-3,3-dimethyl-2-oxo-1-thiobutyrohydroxamic acid zinc (+2) chelate]	2.7	0.0	6.3	1.0	0.0	3.0	2.0	0.0	0.0		0.0	0.0
CN([O-])C(=S)C(=O)C12CC3CC(CC(C3)C1)C2.CN([O-])C(=S)C(=O)C12CC3CC(CC(C3)C1)C2.[Cu+2] [N-methyl-alpha-thio-1-adamantaneglyoxylohydroxamic acid copper(+2) chelate]	0.0	0.0	0.0	0.0	0.0	0.0	0.0	0.0	0.5	1.8	0.0	0.0
N-methyl-alpha-thio-1-adamantaneglyoxylohydroxamic acid zinc(+2) chelate	0.0	0.0	1.5	0.0	0.0	0.0	0.0	0.0	0.5	3.0	0.0	0.0
CC(C)(C)C(=O)C(=S)N(O)C1CCCC1 [N-cyclopentyl-3,3-dimethyl-2-oxo-1-thiobutyrohydroxamic acid]	1.5	1.5	3.0	1.5	0.0	0.0	0.0	0.0	0.3		0.0	0.0
CN(O)C(=S)C(=O)C1(C)CC1 [N,1-dimethyl-alpha-thio-cyclopropaneglyoxylohydroxamic acid]	0.5	0.0	7.0	0.0								
COC(=O)ON(C)C(=S)C(=O)C(C)(C)C [methylcarbonate ester of N,3,3-trimethyl-2-oxo-1thiobutyrohydroxamate]	0.0	0.0	5.0	0.0	0.0	0.0	0.0	0.0	0.0		2.0	0.0
